Values after ≈ are worked out from the molar mass of the structure shown.
Tests used:
[1] = system: Staphylococcus aureus, MRSA (ATCC 33591); assay: Antibacterial MIC assay (microbroth dilution, CLSI); assay type: cell-based; conditions: 35° C., 16-20 hours
Excerpt: (§1) All MIC testing of bacteria followed the Clinical and Laboratory Standards Institute (CLSI) guidelines for antimicrobial testing of aerobic bacteria (Methods for Dilution Antimicrobial Susceptibility Tests for Bacteria that Grow Aerobically; Approved Standard—Tenth Edition, M07-A10; Performance Standards for Antimicrobial Susceptibility Testing; Twenty-fifth Informational Supplement, M100-S25).
(§2) Briefly, the microbroth dilution MIC method was used to quantitatively measure the in vitro antibacterial activity of a compound against a given bacterial isolate. The following bacterial strains were evaluated: Staphylococcus aureus, MRSA (ATCC 33591) and Streptococcus pneumoniae (ATCC 49619). Bacteria were grown in cation-adjusted Mueller-Hinton broth, with additions as required per species growth requirements (e.g. 3% lysed horse blood for fastidious organisms such as S. pneumoniae). A direct colony suspension in saline was prepared from colonies on an overnight agar plate to achieve a turbidity equivalent to 0.5 McFarland standard, which was subsequently diluted into the assay plate to achieve 5×10^5 CFU/mL. Assays plates were prepared by 2-fold dilution of compound across the plate and included a positive growth control.

[2] = system: Streptococcus pneumoniae (ATCC 49619); assay: as above; assay type: cell-based; conditions: 35° C., 16-20 hours; for MIC Streptococcus pneumoniae (ATCC 49619): 3% lysed horse blood
Excerpt: as §1, §2

SMILES: CNC(=O)/C=C/[C@]1(C)C[C@@H](OC(=O)COc2ccc3c(c2F)B(O)OC3)[C@]2(C)[C@H](C)CC[C@]3(CCC(=O)[C@H]32)[C@@H](C)[C@@H]1O [Compound 15, (3aR,4R,5R,7S,8S,9R,9aS,12R)-8-hydroxy-4,7,9,12-tetramethyl-7-((E)-3-(methylamino)-3-oxoprop-1-en-1-yl)-3-oxodecahydro-4,9a-propanocyclopenta[8]annulen-5-yl2-((7-fluoro-1-hydroxy-1,3-dihydrobenzo[c][1,2]oxaborol-6-yl)oxy)acetate]
- MIC Staphylococcus aureus, MRSA (ATCC 33591) [1]: B (0.5-2 is B)
- MIC Streptococcus pneumoniae (ATCC 49619) [2]: B (0.5-2 is B)

SMILES: CONC(=O)/C=C/[C@]1(C)C[C@@H](OC(=O)COc2ccc3c(c2F)B(O)OC3)[C@]2(C)[C@H](C)CC[C@]3(CCC(=O)[C@H]32)[C@@H](C)[C@@H]1O [Compound 16, (3aR,4R,5R,7S,8S,9R,9aS,12R)-8-hydroxy-7-((E)-3-(methoxyamino)-3-oxoprop-1-en-1-yl)-4,7,9,12-tetramethyl-3-oxodecahydro-4,9a-propanocyclopenta[8]annulen-5-yl2-((7-fluoro-1-hydroxy-1,3-dihydrobenzo[c][1,2]oxaborol-6-yl)oxy)acetate]
- MIC Staphylococcus aureus, MRSA (ATCC 33591) [1]: C (4-32 is C)
- MIC Streptococcus pneumoniae (ATCC 49619) [2]: B (0.5-2 is B)

SMILES: C[C@@H]1CC[C@@]23CCC(=O)[C@H]2[C@]1(C)[C@H](OC(=O)COc1ccc2c(c1F)B(O)OC2)C[C@@](C)(/C=C/C(=O)NNC(=O)OC(C)(C)C)[C@@H](O)[C@@H]3C [Compound 17, tert-butyl 2-((E)-3-((3aR,4R,5R,7S,8S,9R,9aS,12R)-5-(2-((7-fluoro-1-hydroxy-1,3-dihydrobenzo[c][1,2]oxaborol-6-yl)oxy)acetoxy)-8-hydroxy-4,7,9,12-tetramethyl-3-oxodecahydro-4,9a-propanocyclopenta[8]annulen-7-yl)acryloyl)hydrazine-1-carboxylate]
- MIC ([1]; Staphylococcus aureus): 4 to 32 mg/L (≈ 5.83 to 46.6 µM)
- MIC ([2]; Streptococcus pneumoniae, ATCC49619, 3% lysed horse blood): 0.5 to 2 mg/L (≈ 0.728 to 2.91 µM)

SMILES: C[C@@H]1CC[C@@]23CCC(=O)[C@H]2[C@]1(C)[C@H](OC(=O)COc1ccc2c(c1F)B(O)OC2)C[C@@](C)(/C=C/C(=O)NN)[C@@H](O)[C@@H]3C [Compound 18, (3aR,4R,5R,7S,8S,9R,9aS,12R)-7-((E)-3-hydrazinyl-3-oxoprop-1-en-1-yl)-8-hydroxy-4,7,9,12-tetramethyl-3-oxodecahydro-4,9a-propanocyclopenta[8]annulen-5-yl2-((7-fluoro-1-hydroxy-1,3-dihydrobenzo[c][1,2]oxaborol-6-yl)oxy)acetate]
- MIC Staphylococcus aureus, MRSA (ATCC 33591) [1]: C (4-32 is C)
- MIC Streptococcus pneumoniae (ATCC 49619) [2]: B (0.5-2 is B)

SMILES: CC[C@]1(C)C[C@@H](OC(=O)COc2ccc3c(c2F)B(O)OC3)[C@]2(C)[C@H](C)CC[C@]3(CCC(=O)[C@H]32)[C@@H](C)[C@@H]1O [Compound 19, (3aR,4R,5R,7R,8S,9R,9aS,12R)-7-ethyl-8-hydroxy-4,7,9,12-tetramethyl-3-oxodecahydro-4,9a-propanocyclopenta[8]annulen-5-yl2-((7-fluoro-1-hydroxy-1,3-dihydrobenzo[c][1,2]oxaborol-6-yl)oxy)acetate]
- MIC Staphylococcus aureus, MRSA (ATCC 33591) [1]: A (MIC of ≤0.25 is A)
- MIC Streptococcus pneumoniae (ATCC 49619) [2]: B (0.5-2 is B)

SMILES: C=CC[C@]1(C)C[C@@H](OC(=O)COc2ccc3c(c2F)B(O)OC3)[C@]2(C)[C@H](C)CC[C@]3(CCC(=O)[C@H]32)[C@@H](C)[C@@H]1O [Compound 21, (3aR,4R,5R,7R,8S,9R,9aS,12R)-7-allyl-8-hydroxy-4,7,9,12-tetramethyl-3-oxodecahydro-4,9a-propanocyclopenta[8]annulen-5-yl2-((7-fluoro-1-hydroxy-1,3-dihydrobenzo[c][1,2]oxaborol-6-yl)oxy)acetate]
- MIC Staphylococcus aureus, MRSA (ATCC 33591) [1]: A (MIC of ≤0.25 is A)
- MIC Streptococcus pneumoniae (ATCC 49619) [2]: B (0.5-2 is B)

SMILES: C#CC[C@]1(C)C[C@@H](OC(=O)COc2ccc3c(c2F)B(O)OC3)[C@]2(C)[C@H](C)CC[C@]3(CCC(=O)[C@H]32)[C@@H](C)[C@@H]1O [Compound 22, (3aR,4R,5R,7R,8S,9R,9aS,12R)-8-hydroxy-4,7,9,12-tetramethyl-3-oxo-7-(prop-2-yn-1-yl)decahydro-4,9a-propanocyclopenta[8]annulen-5-yl2-((7-fluoro-1-hydroxy-1,3-dihydrobenzo[c][1,2]oxaborol-6-yl)oxy)acetate]
- MIC Staphylococcus aureus, MRSA (ATCC 33591) [1]: A (MIC of ≤0.25 is A)
- MIC Streptococcus pneumoniae (ATCC 49619) [2]: B (0.5-2 is B)

SMILES: C[C@@H]1CC[C@@]23CCC(=O)[C@H]2[C@]1(C)[C@H](OC(=O)COc1ccc2c(c1F)B(O)OC2)C[C@@](C)(CO)[C@@H](O)[C@@H]3C [Compound 23, (3aR,4R,5R,7S,8S,9R,9aS,12R)-8-hydroxy-7-(hydroxymethyl)-4,7,9,12-tetramethyl-3-oxodecahydro-4,9a-propanocyclopenta[8]annulen-5-yl2-((7-fluoro-1-hydroxy-1,3-dihydrobenzo[c][1,2]oxaborol-6-yl)oxy)acetate]
- MIC Staphylococcus aureus, MRSA (ATCC 33591) [1]: A (MIC of ≤0.25 is A)
- MIC Streptococcus pneumoniae (ATCC 49619) [2]: C (4-32 is C)

SMILES: COC[C@]1(C)C[C@@H](OC(=O)COc2ccc3c(c2F)B(O)OC3)[C@]2(C)[C@H](C)CC[C@]3(CCC(=O)[C@H]32)[C@@H](C)[C@@H]1O [Compound 24, (3aR,4R,5R,7S,8S,9R,9aS,12R)-8-hydroxy-7-(methoxymethyl)-4,7,9,12-tetramethyl-3-oxodecahydro-4,9a-propanocyclopenta[8]annulen-5-yl2-((7-fluoro-1-hydroxy-1,3-dihydrobenzo[c][1,2]oxaborol-6-yl)oxy)acetate]
- MIC Staphylococcus aureus, MRSA (ATCC 33591) [1]: A (MIC of ≤0.25 is A)
- MIC Streptococcus pneumoniae (ATCC 49619) [2]: C (4-32 is C)

SMILES: C[C@@H]1CC[C@@]23CCC(=O)[C@H]2[C@]1(C)[C@H](OC(=O)COc1ccc2c(c1F)B(O)OC2)C[C@@](C)(CCO)[C@@H](O)[C@@H]3C [Compound 25, (3aR,4R,5R,7R,8S,9R,9aS,12R)-8-hydroxy-7-(2-hydroxyethyl)-4,7,9,12-tetramethyl-3-oxodecahydro-4,9a-propanocyclopenta[8]annulen-5-yl2-((7-fluoro-1-hydroxy-1,3-dihydrobenzo[c][1,2]oxaborol-6-yl)oxy)acetate]
- MIC Staphylococcus aureus, MRSA (ATCC 33591) [1]: B (0.5-2 is B)
- MIC Streptococcus pneumoniae (ATCC 49619) [2]: C (4-32 is C)

SMILES: COCC[C@]1(C)C[C@@H](OC(=O)COc2ccc3c(c2F)B(O)OC3)[C@]2(C)[C@H](C)CC[C@]3(CCC(=O)[C@H]32)[C@@H](C)[C@@H]1O [Compound 26, (3aR,4R,5R,7R,8S,9R,9aS,12R)-8-hydroxy-7-(2-methoxyethyl)-4,7,9,12-tetramethyl-3-oxodecahydro-4,9a-propanocyclopenta[8]annulen-5-yl2-((7-fluoro-1-hydroxy-1,3-dihydrobenzo[c][1,2]oxaborol-6-yl)oxy)acetate]
- MIC Staphylococcus aureus, MRSA (ATCC 33591) [1]: A (MIC of ≤0.25 is A)
- MIC Streptococcus pneumoniae (ATCC 49619) [2]: C (4-32 is C)

SMILES: C[C@@H]1CC[C@@]23CCC(=O)[C@H]2[C@]1(C)[C@H](OC(=O)COc1ccc2c(c1F)B(O)OC2)C[C@@](C)([C@@H]1CO1)[C@@H](O)[C@@H]3C [Compound 27, (3aR,4R,5R,7R,8S,9R,9aS,12R)-8-hydroxy-4,7,9,12-tetramethyl-7-((R)-oxiran-2-yl)-3-oxodecahydro-4,9a-propanocyclopenta[8]annulen-5-yl2-((7-fluoro-1-hydroxy-1,3-dihydrobenzo[c][1,2]oxaborol-6-yl)oxy)acetate]
- MIC Staphylococcus aureus, MRSA (ATCC 33591) [1]: A (MIC of ≤0.25 is A)
- MIC Streptococcus pneumoniae (ATCC 49619) [2]: B (0.5-2 is B)

SMILES: CSC[C@]1(C)C[C@@H](OC(=O)COc2ccc3c(c2F)B(O)OC3)[C@]2(C)[C@H](C)CC[C@]3(CCC(=O)[C@H]32)[C@@H](C)[C@@H]1O [Compound 29, (3aR,4R,5R,7R,8S,9R,9aS,12R)-8-hydroxy-4,7,9,12-tetramethyl-7-((methylthio)methyl)-3-oxodecahydro-4,9a-propanocyclopenta[8]annulen-5-yl2-((7-fluoro-1-hydroxy-1,3-dihydrobenzo[c][1,2]oxaborol-6-yl)oxy)acetate]
- MIC Staphylococcus aureus, MRSA (ATCC 33591) [1]: A (MIC of ≤0.25 is A)
- MIC Streptococcus pneumoniae (ATCC 49619) [2]: C (4-32 is C)

SMILES: C[C@@H]1CC[C@@]23CCC(=O)[C@H]2[C@]1(C)[C@H](OC(=O)COc1ccc2c(c1F)B(O)OC2)C[C@@](C)(C[S+](C)[O-])[C@@H](O)[C@@H]3C (stereo partly drawn) [Compound 30, (3aR,4R,5R,7R,8S,9R,9aS,12R)-8-hydroxy-4,7,9,12-tetramethyl-7-((methylsulfinyl)methyl)-3-oxodecahydro-4,9a-propanocyclopenta[8]annulen-5-yl2-((7-fluoro-1-hydroxy-1,3-dihydrobenzo[c][1,2]oxaborol-6-yl)oxy)acetate]
- MIC Staphylococcus aureus, MRSA (ATCC 33591) [1]: B (0.5-2 is B)
- MIC Streptococcus pneumoniae (ATCC 49619) [2]: C (4-32 is C)

SMILES: C[C@@H]1CC[C@@]23CCC(=O)[C@H]2[C@]1(C)[C@H](OC(=O)COc1ccc2c(c1F)B(O)OC2)C[C@@](C)(C=O)[C@@H](O)[C@@H]3C [Compound 31, (3aR,4R,5R,7R,8S,9R,9aS,12R)-7-formyl-8-hydroxy-4,7,9,12-tetramethyl-3-oxodecahydro-4,9a-propanocyclopenta[8]annulen-5-yl2-((7-fluoro-1-hydroxy-1,3-dihydrobenzo[c][1,2]oxaborol-6-yl)oxy)acetate]
- MIC Staphylococcus aureus, MRSA (ATCC 33591) [1]: A (MIC of ≤0.25 is A)
- MIC Streptococcus pneumoniae (ATCC 49619) [2]: B (0.5-2 is B)

Reference: US20220273683A1, “BORON-CONTAINING SMALL MOLECULES” (Bill & Melinda Gates Foundation, priority 2016, published 2022)
